Laboratory results taken from patent US11832638B2, “N-acyl derivatives of gamma amino-butyric acid and beta alanine as food flavouring compounds” (GIVAUDAN SA, priority 2012, dated 2023).

Key:
[1] = Tasting in pilaf (cooked rice with flavoured butter); settings: standard cooked rice with 10% of the C18:2-gaba flavoured butter
Procedure: (§1) The following formulations were prepared and tasted by trained panelists.

[2] = Tasting in standard chicken bouillon base; settings: 0.5 PPM in standard chicken bouillon base, 0.7% salt, 0.5% fat
Procedure: as §1
Standard Chicken bouillon base, 0.7% salt, 0.5% fat

[3] = Tasting in spreadable cheese ERU; settings: 0.5 PPM in spreadable cheese ERU
Procedure: as §1

[4] = Tasting of chicken filet fried in oil; settings: 2.0 PPM in 135 gram frying oil (82% fat)
Procedure: Differentiator high temperature 100-250 degrees Celsius in a frying in oil process
C18:2-gaba @ 2.0 PPM in 135 gram frying oil (blue band 82% Fat) 450 gram chicken filet 2 minutes high fire and 5 minutes medium fire.

[5] = Yoghurt cream flavoured non-sweetened, different fat levels; settings: 2 ppm, cream flavour 0.03%
Procedure: Yoghurt Cream Flavoured Non-sweetened And Different Fat Levels
In a Yoghurt containing 0% 1.5% and 3% fat, flavoured with proprietary cream flavour dosed at 0.03%, C18:2-gaba was added at 2 ppm. Samples were evaluated by expert tasters. Tasters were asked to describe the samples focusing on authentic taste, mouthfeel, fullness, salivation, sweetness, juiciness, richness, long lastingness and fattiness.

[6] = Strawberry flavoured sugar sweetened yoghurt; settings: 2 ppm, 1.5% fat yoghurt base, 8% sucrose, strawberry flavour 0.015%
Excerpt: Strawberry Flavoured Sugar Sweetened Yoghurt
The base consisted of a 1.5% fat yoghurt base, sweetened with 8% sucrose by weight, flavoured with a proprietary strawberry flavour @ 0.015%.

[7] = Activa strawberry yoghurt; settings: 2 ppm, full fat Activa strawberry flavoured yoghurt
Excerpt: Activa Strawberry Yoghurt
In a Full fat, Activa strawberry flavoured yoghurt C18:2-gaba

Soy milk = settings: 2 ppm, 5% sucrose, milk flavor 0.1%
Procedure: In a soy milk sweetened with 5% sucrose by weight, flavoured with a proprietary milk flavour at a dosage of 0.1%, C18:2-gaba was added at 2 ppm
Samples were evaluated by expert tasters. Tasters were asked to describe the samples focusing on authentic taste , mouthfeel, fullness, salivation, sweetness, juiciness, richness, long lastingness and fattiness.

Test in 3 in 1 coffee = settings: 1 ppm, 3-in-1 coffee beverage with sucrose and creamer with fat
Procedure: In a 3 in 1 Coffee beverage from Nestle (market product) sweetened with sucrose and containing creamer with fat C18:2-gaba was added.
Samples were evaluated by expert tasters. Tasters were asked to describe the samples focusing on authentic taste, mouthfeel, fullness, salivation, sweetness, juiciness, richness, long lastingness and fattiness.
Base is 3-in-1 Coffee beverage (market product) sweetened with sucrose and containing creamer with fat

[8] = Test on Tang powdered soft drink; settings: 0.5 ppm, orange flavoured Tang
Procedure: In an orange flavoured Tang powdered soft drink (market product) sweetened with sucrose plus high intensity sweetener and containing citric acid and C18:2-gaba.
All samples were evaluated by expert tasters. Tasters were asked to describe the samples focusing on authentic taste, mouthfeel & body, enhancement, richness, juiciness, long lastingness, salivation, sweetness, masking off notes of high intensity sweetener
Base is Orange flavoured Tang

Test on Breezer Orange = settings: 0.5 ppm
Procedure: Samples were evaluated by expert tasters. Tasters were asked to describe the samples focusing on authentic taste, alcohol impact, juiciness, mouthfeel, fullness, salivation, sweetness, bitterness, richness, long lastingness and fattiness.

[9] = Test on organic acids in a beverage; settings: 1 ppm, water, 7% sucrose
Procedure: Testing With Beverages Containing Organic Acids From 0.01% to 7%
Test 18:2 Gaba on Organic Acids in a Beverage.
In a solution containing water, 7% sucrose by weight, and different organic acids, C18:2-gaba was added at 1 ppm. We observed taste effects on the acid perception upon addition of C18:2-gaba.
Base is water, 7% Sucrose by weight, Tartaric acid at 0.121% by weight
Base is water, 7% Sucrose by weight, Malic acid at 0.1081% by weight
Base is water, 7% Sucrose by weight, Citric acid at 0.1% by weight
Base is water, 7% Sucrose by weight, Fumaric acid at 0.0936% by weight

[10] = Test on Kikkoman soy sauce low salt; settings: 0.5 ppm
Excerpt: Test on Kikkoman Soy Sauce Low Salt
Base is Kikkoman soy sauce

[11] = Test on menthol fondant (1%); settings: 2 ppm, fondant 65%, sugar syrup 34%, menthol flavour 1%
Excerpt: Test on Menthol Fondant (1%)
Base is Fondant 65%, sugar syrup 34% and a proprietary menthol flavour at 1%

[12] = Calve salad dressing low fat; settings: 0.5 ppm
Excerpt: Calve Salad Dressing Low Fat:
Base is Calve salad dressing (market product)

[13] = Comparison in a mango juice drink; settings: 2 ppm, 8% sucrose, 0.1% citric acid, 0.18 g clear mango juice, mango flavour 0.05%
Excerpt: Comparison in a Mango Juice Drink
Base is 8% sucrose, 0.1% citric acid, 0.18 g clear mango juice, and a proprietary mango flavour at 0.05%.

[14] = Comparison in beef bouillon; settings: 2 ppm, Maggi beef bouillon 1 tablet in 500 ml hot water
Procedure: Comparison in Beef Bouillon
Base is Maggi beef bouillon 1 tablet in 500 ml of hot water

[15] = Test in a strawberry yoghurt; settings: 2 ppm, 1.5% fat yoghurt, 8% sucrose, strawberry flavour 0.015%
Excerpt: Test in a Strawberry Yoghurt
Base: Yoghurt 1.5% fat yoghurt, 8% sucrose, proprietary strawberry flavour @ 0.015%

[16] = Test in peach flavoured drink; settings: 1 ppm, water, 8% sugar, 0.1% citric acid, peach flavour 0.05%
Excerpt: Test in Peach Flavoured Drink:
Base is water, 8% sugar, 0.1% citric acid, and proprietary peach flavour at 0.05%

[17] = Test in pineapple flavoured drink; settings: 1 ppm, water, 8% sugar, 0.1% citric acid, pineapple flavour 0.03%
Excerpt: Test in Pineapple Flavoured Drink:
Base is water, 8% sugar, 0.1% citric acid and proprietary pineapple flavour at 0.03%

SMILES: CCCCC/C=C\C/C=C\CCCCCCCC(=O)NCCCC(=O)O [C18:2-gaba]
- tasting result (trained panelists) [1]: more mouthfeel, with a lingering creamy authentic butter taste
- tasting result (trained panelists) [2]: Strong, Salty, Umami, mouthfeel
- tasting result (trained panelists) [3]: Full, Salty, cheese bite, more mature
- taste of the chicken ([4]; 450 gram chicken filet, 2 minutes high fire and 5 minutes medium fire): more juicy, succulent, lingering more white meat
- taste of the frying oil ([4]; after frying chicken filet): more savoury golden brown notes
- description by expert tasters ([5]; yoghurt 0% fat): less acdic, slight creamy aftertaste
- description by expert tasters ([5]; yoghurt 1.5% fat): very creamy, thick, nice long lasting, whipped cream note
- description by expert tasters ([5]; yoghurt 3% fat): less acidic, much more creamy, very long lasting creamy aftertaste
- taste description [6]: very creamy and fresh strawberry
- taste description [7]: very creamy, full and fresh strawberry
- description by expert tasters (Soy milk): clean, creamy, good masking of the soy bean taste, creamy and milky
- description by expert tasters (Test in 3 in 1 coffee): very nice mouthfeel effect, creamy as if coffee creamer is added, more sweet
- description by expert tasters [8]: enhances sweet juicy orange notes, enhanced mouthfeel. Additionally, the off-notes of the high intensity sweetener were suppressed
- description by expert tasters (Test on Breezer Orange): more alcoholic, sweeter, more juicy orange, less soapy
- taste effects on the acid perception ([9]; citric acid 0.1% by weight): decreased sharp acidic perception, full body mouthfeel, higher higher mouth watering, and an impression of the juicy notes of citrus fruit (orange, lemon)
- taste effects on the acid perception ([9]; fumaric acid 0.0936% by weight): decreased sharp acidic perception, full body mouthfeel effects, higher sweet effects, and an impression of the full notes characteristic of sweet red & vanillic flavor types (vanilla, chocolate, raspberry, cherry, especially benzaldhyde)
- taste effects on the acid perception ([9]; malic acid 0.1081% by weight): decreased sharp acidic perception, give fuller body, mouthfeel, higher mouthwatering, and an impression of the flesh and skin notes of fruit (apple)
- taste effects on the acid perception ([9]; tartaric acid 0.121% by weight): decreased sharp acidic perception, full body mouthfeel, higher mouthwatering, more immediate (upfront hit), and an impression of the flesh of fruit (grape, apple, banana, pear-like)
- taste description [10]: much more salty, sweet and long lasting
- taste description [11]: increased menthol impact, stronger cooling more sweet, long lasting, fresh
- taste description [12]: much fuller, creamy, rich, less acidic
- taste description [13]: full long lasting nice juicy, almost a bit salty
- taste description ([13]; listed as C18:2 gaba): fatty skin like, juicy, authentic
- taste description [14]: salty, savoury, full
- taste description [15]: creamy, fruity authentic strawberry , stronger strawberry, ripe, long lasting, juicy
- taste description [16]: fruity peach, long lasting, juicy and fatty skin like very authentic
- taste description [17]: very ripe, jammy, long lasting and sweet
